In patent US8703768B2, “Nitrogen containing heteroaryl compounds” (Hoffmann-La Roche Inc., priority 2010, dated 2014):

Each molecule was assayed against human PDE10A (Homo sapiens (Human), UniProt Q9Y233) (assay: human PDE10A full length Scintillation Proximity Assay (SPA)). Conditions: 50 nM cGMP and 50 nM [3H]-cGMP, 20 minutes at room temperature; read-out: PDE10A inhibition IC50.
Assay type: biochemical
Method in brief: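 Radiometric SPA read-out: after 20 min at room temperature with [^3H]-cGMP/cGMP substrate, zinc sulphate (18 mM) bead stop reagent added and counts read after 1 h. Non-specific signal defined without enzyme; full-length protein used.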

human PDE10A, sequence (Q9Y233 other isoform, or with tags, fused parts or gaps): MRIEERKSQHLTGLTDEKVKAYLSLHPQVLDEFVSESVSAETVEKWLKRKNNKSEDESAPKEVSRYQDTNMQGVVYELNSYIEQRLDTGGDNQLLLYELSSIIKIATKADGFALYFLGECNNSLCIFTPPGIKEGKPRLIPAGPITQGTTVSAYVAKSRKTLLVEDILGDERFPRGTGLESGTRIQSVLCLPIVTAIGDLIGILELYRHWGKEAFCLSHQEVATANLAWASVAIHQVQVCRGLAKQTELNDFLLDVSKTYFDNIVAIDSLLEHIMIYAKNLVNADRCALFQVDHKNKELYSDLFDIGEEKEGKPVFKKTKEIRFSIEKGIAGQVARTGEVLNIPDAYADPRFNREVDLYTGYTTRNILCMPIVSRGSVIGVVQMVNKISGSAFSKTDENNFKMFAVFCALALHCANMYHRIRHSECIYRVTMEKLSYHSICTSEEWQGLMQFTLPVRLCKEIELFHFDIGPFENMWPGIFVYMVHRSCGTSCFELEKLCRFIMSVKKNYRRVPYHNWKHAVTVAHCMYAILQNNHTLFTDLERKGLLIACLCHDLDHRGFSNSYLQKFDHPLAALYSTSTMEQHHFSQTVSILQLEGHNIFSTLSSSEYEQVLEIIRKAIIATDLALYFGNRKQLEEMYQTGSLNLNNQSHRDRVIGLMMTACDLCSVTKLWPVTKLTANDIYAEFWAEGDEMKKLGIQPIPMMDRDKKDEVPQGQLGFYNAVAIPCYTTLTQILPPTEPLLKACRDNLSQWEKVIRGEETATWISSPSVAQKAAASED

SMILES	IC50 [nM]
CCn1ncc(NC(=O)c2nc(C3CC3)cnc2Nc2cncnc2)c1C(=O)N(C)C [Example 169, 6-Cyclopropyl-3-(pyrimidin-5-ylamino)-pyrazine-2-carboxylic acid (5-dimethylcarbamoyl-1-ethyl-1H-pyrazol-4-yl)-amide]	22.3
CCn1ncc(NC(=O)c2nc(C3CC3)cnc2Nc2cncnc2)c1C(=O)N1CCOCC1 [Example 170, 6-Cyclopropyl-3-(pyrimidin-5-ylamino)-pyrazine-2-carboxylic acid [1-ethyl-5-(morpholine-4-carbonyl)-1H-pyrazol-4-yl]-amide]	88.9
Cn1ncc(NC(=O)c2nc(C3CC3)cnc2Nc2cncnc2)c1C(=O)NCCF [Example 171, 6-Cyclopropyl-3-(pyrimidin-5-ylamino)-pyrazine-2-carboxylic acid [5-(2-fluoro-ethylcarbamoyl)-1-methyl-1H-pyrazol-4-yl]-amide]	2.8
CC(C)(O)CNC(=O)c1c(NC(=O)c2nc(C3CC3)cnc2Nc2cncnc2)cnn1CCC(F)(F)F [Example 172, 6-Cyclopropyl-3-(pyrimidin-5-ylamino)-pyrazine-2-carboxylic acid [5-(2-hydroxy-2-methyl-propylcarbamoyl)-1-(3,3,3-trifluoro-propyl)-1H-pyrazol-4-yl]-amide]	12.9
CNC(=O)c1c(NC(=O)c2nc(C3CC3)cnc2Nc2cncnc2)cnn1CCC(F)(F)F [Example 173, 6-Cyclopropyl-3-(pyrimidin-5-ylamino)-pyrazine-2-carboxylic acid [5-methylcarbamoyl-1-(3,3,3-trifluoro-propyl)-1H-pyrazol-4-yl]-amide]	19.5
Cn1ncc(NC(=O)c2nc(C3CC3)cnc2Nc2cncnc2)c1C(=O)N1CC(F)C1 [Example 174, 6-Cyclopropyl-3-(pyrimidin-5-ylamino)-pyrazine-2-carboxylic acid [5-(3-fluoro-azetidine-1-carbonyl)-1-methyl-1H-pyrazol-4-yl]-amide]	14.8
CC(C)(O)CNC(=O)c1c(NC(=O)c2nc(C3CC3)cnc2Nc2cncnc2)cnn1CC(F)(F)F [Example 175, 6-Cyclopropyl-3-(pyrimidin-5-ylamino)-pyrazine-2-carboxylic acid [5-(2-hydroxy-2-methyl-propylcarbamoyl)-1-(2,2,2-trifluoro-ethyl)-1H-pyrazol-4-yl]-amide]	25
CNC(=O)c1nc(C2CCCO2)ccc1NC(=O)c1nc(C2CC2)cnc1Nc1cncnc1 (centres unmarked) [Example 177, 6-Cyclopropyl-3-(pyrimidin-5-ylamino)-pyrazine-2-carboxylic acid [2-methylcarbamoyl-6-(tetrahydro-furan-2-yl)-pyridin-3-yl]-amide]	0.2
CC(C)(O)CNC(=O)c1nc(C2CCCO2)ccc1NC(=O)c1nc(C2CC2)cnc1Nc1cncnc1 (centres unmarked) [Example 178, 6-Cyclopropyl-3-(pyrimidin-5-ylamino)-pyrazine-2-carboxylic acid [2-(2-hydroxy-2-methyl-propylcarbamoyl)-6-(tetrahydro-furan-2-yl)-pyridin-3-yl]-amide]	0.1
Cn1ncc(NC(=O)c2nc(C3CC3)cnc2Nc2cncnc2)c1C(=O)N1CCOCC1 [Example 179, 6-Cyclopropyl-3-(pyrimidin-5-ylamino)-pyrazine-2-carboxylic acid [1-methyl-5-(morpholine-4-carbonyl)-1H-pyrazol-4-yl]-amide]	148
CCc1ccc(NC(=O)c2nc(C3CC3)cnc2Nc2cncnc2)c(C(=O)NC)n1 [Example 180, 6-Cyclopropyl-3-(pyrimidin-5-ylamino)-pyrazine-2-carboxylic acid (6-ethyl-2-methylcarbamoyl-pyridin-3-yl)-amide]	5.5
CCc1ccc(NC(=O)c2nc(C3CC3)cnc2Nc2cncnc2)c(C(=O)NCC(C)(C)O)n1 [Example 181, 6-Cyclopropyl-3-(pyrimidin-5-ylamino)-pyrazine-2-carboxylic acid [6-ethyl-2-(2-hydroxy-2-methyl-propylcarbamoyl)-pyridin-3-yl]-amide]	0.4
CNC(=O)c1nc(C)ccc1NC(=O)c1nc(C2CC2)cnc1Nc1cncnc1 [Example 182, 6-Cyclopropyl-3-(pyrimidin-5-ylamino)-pyrazine-2-carboxylic acid (6-methyl-2-methylcarbamoyl-pyridin-3-yl)-amide]	3.5
Cc1ccc(NC(=O)c2nc(C3CC3)cnc2Nc2cncnc2)c(C(=O)NCC(C)(C)O)n1 [Example 183, 6-Cyclopropyl-3-(pyrimidin-5-ylamino)-pyrazine-2-carboxylic acid [2-(2-hydroxy-2-methyl-propylcarbamoyl)-6-methyl-pyridin-3-yl]-amide]	0.3
CNC(=O)c1c(NC(=O)c2nc(C(C)=O)cnc2Nc2cncnc2)cnn1C [Example 184, 6-Acetyl-3-(pyrimidin-5-ylamino)-pyrazine-2-carboxylic acid (1-methyl-5-methylcarbamoyl-1H-pyrazol-4-yl)-amide]	162
CCNC(=O)c1c(NC(=O)c2nc(C3CC3)cnc2Nc2cncnc2)sc2c1CCCC2 [Example 185, 6-Cyclopropyl-3-(pyrimidin-5-ylamino)-pyrazine-2-carboxylic acid (3-ethylcarbamoyl-4,5,6,7-tetrahydro-benzo[b]thiophen-2-yl)-amide]	2690
CNC(=O)c1c(NC(=O)c2nc(C(C)C)ncc2Nc2cccnc2)cnn1C [Example 186, 2-Isopropyl-5-(pyridin-3-ylamino)-pyrimidine-4-carboxylic acid (1-methyl-5-methylcarbamoyl-1H-pyrazol-4-yl)-amide]	8.2
CNC(=O)c1c(NC(=O)c2nc(C(C)O)cnc2Nc2cncnc2)cnn1C (centres unmarked) [Example 187, 6-(1-Hydroxy-ethyl)-3-(pyrimidin-5-ylamino)-pyrazine-2-carboxylic acid (1-methyl-5-methylcarbamoyl-1H-pyrazol-4-yl)-amide]	63.8

Results, then the molecule that gave them:

IC50 [nM]	SMILES
51.7	CNC(=O)c1c(NC(=O)c2nc(C(C)C)ncc2Nc2cccc(F)c2)cnn1C [Example 188, 5-(3-Fluoro-phenylamino)-2-isopropyl-pyrimidine-4-carboxylic acid (1-methyl-5-methylcarbamoyl-1H-pyrazol-4-yl)-amide]
144	CNC(=O)c1c(NC(=O)c2nc(COC)ccc2Nc2cncnc2)cnn1C [Example 189, 6-Methoxymethyl-3-(pyrimidin-5-ylamino)-pyridine-2-carboxylic acid (1-methyl-5-methylcarbamoyl-1H-pyrazol-4-yl)-amide]
24	CNC(=O)c1c(NC(=O)c2nc(C(C)C)ncc2Nc2cncc(F)c2)cnn1C [Example 190, 5-(5-Fluoro-pyridin-3-ylamino)-2-isopropyl-pyrimidine-4-carboxylic acid (1-methyl-5-methylcarbamoyl-1H-pyrazol-4-yl)-amide]
470	CNC(=O)c1c(NC(=O)c2nc(C(C)C)ncc2Nc2ccc(F)cc2)cnn1C [Example 191, 5-(4-Fluoro-phenylamino)-2-isopropyl-pyrimidine-4-carboxylic acid (1-methyl-5-methylcarbamoyl-1H-pyrazol-4-yl)-amide]
3.1	CNC(=O)c1c(NC(=O)c2nc(C3CC3)cnc2Nc2cncnc2)cccc1OC [Example 192, 6-Cyclopropyl-3-(pyrimidin-5-ylamino)-pyrazine-2-carboxylic acid (3-methoxy-2-methylcarbamoyl-phenyl)-amide]
11.7	CNC(=O)c1c(NC(=O)c2nc(C3CCC3)ncc2Nc2cncnc2)cnn1C [Example 193, 2-Cyclobutyl-5-(pyrimidin-5-ylamino)-pyrimidine-4-carboxylic acid (1-methyl-5-methylcarbamoyl-1H-pyrazol-4-yl)-amide]
5.5	O=C(Nc1cccnc1C(=O)N1CCC1)c1nc(C2CC2)cnc1Nc1cncnc1 [Example 194, 6-Cyclopropyl-3-(pyrimidin-5-ylamino)-pyrazine-2-carboxylic acid [2-(azetidine-1-carbonyl)-pyridin-3-yl]-amide]
16.4	O=C(Nc1cccnc1C(=O)N1CCCCC1)c1nc(C2CC2)cnc1Nc1cncnc1 [Example 195, 6-Cyclopropyl-3-(pyrimidin-5-ylamino)-pyrazine-2-carboxylic acid [2-(piperidine-1-carbonyl)-pyridin-3-yl]-amide]
22	CNC(=O)c1c(Cl)cccc1NC(=O)c1nc(C2CC2)cnc1Nc1cncnc1 [Example 196, 6-Cyclopropyl-3-(pyrimidin-5-ylamino)-pyrazine-2-carboxylic acid (3-chloro-2-methylcarbamoyl-phenyl)-amide]
3.9	CCNC(=O)c1c(NC(=O)c2nc(C3CC3)cnc2Nc2cncnc2)cnn1C [Example 197, 6-Cyclopropyl-3-(pyrimidin-5-ylamino)-pyrazine-2-carboxylic acid (5-ethylcarbamoyl-1-methyl-1H-pyrazol-4-yl)-amide]
2.5	O=C(Nc1cccnc1C(=O)N1CCCC1)c1nc(C2CC2)cnc1Nc1cncnc1 [Example 198, 6-Cyclopropyl-3-(pyrimidin-5-ylamino)-pyrazine-2-carboxylic acid [2-(pyrrolidine-1-carbonyl)-pyridin-3-yl]-amide]
6.2	CCN(C)C(=O)c1ncccc1NC(=O)c1nc(C2CC2)cnc1Nc1cncnc1 [Example 199, 6-Cyclopropyl-3-(pyrimidin-5-ylamino)-pyrazine-2-carboxylic acid [2-(ethyl-methyl-carbamoyl)-pyridin-3-yl]-amide]
426	CNC(=O)c1c(NC(=O)c2nc(C3CC3)cnc2Nc2cnccn2)cnn1C [Example 200, 6-Cyclopropyl-3-(pyrazin-2-ylamino)-pyrazine-2-carboxylic acid (1-methyl-5-methylcarbamoyl-1H-pyrazol-4-yl)-amide]
11.5	CCNC(=O)c1c(NC(=O)c2nc(C3CC3)cnc2Nc2cncnc2)cnn1CC [Example 201, 6-Cyclopropyl-3-(pyrimidin-5-ylamino)-pyrazine-2-carboxylic acid (1-ethyl-5-ethylcarbamoyl-1H-pyrazol-4-yl)-amide]
